Test results published in patent publication US8178506B2, “Oligomeric compounds and compositions for use in modulation of small non-coding RNAs” (Regulus Therapeutics Inc., priority 2003, dated 2012).
In the oligonucleotide strings, read from the 5' end, every base follows the letter of its sugar. An asterisk marks phosphorothioate; unmarked linkages are phosphodiester. Other units and linkages are bracketed, terminal groups are in braces. A string of capitals states the bases alone. e = 2'-O-(2-methoxyethyl) (MOE); [5mC] = 5-methylcytosine; d = 2'-deoxy (DNA)

Tests used:
PEPCK-c = PEPCK-c mRNA expression in HepG2 cells; type: cell-based, human; settings: for PEPCK-c (% UTC): HepG2, 100 nM oligomeric compound; for PEPCKc mRNA: HepG2 cells, four hours, UTC = 100
follistatin = assay: Follistatin mRNA expression in HepG2 cells; type: cell-based, human; settings: for Follistatin (% UTC): HepG2, 100 nM oligomeric compound; for Follistatin mRNA: HepG2 cells, four hours, UTC = 100
Description: Approximately 28 hours after transfection, the cells are subjected to serum starvation for a period of 12 to 16 hours, using serum-free growth medium. Following serum starvation, cells are treated with 1 nM insulin (insulin-treated) or are left untreated (basal conditions) for approximately four hours. At the same time, untreated control cells in both plates are treated with 100 nM insulin to determine the maximal insulin response. Following insulin treatment (forty-eight hours after transfection), total RNA is harvested from all samples, and the amount of total RNA from each sample is determined using a Ribogreen assay (Invitrogen Corporation, Carlsbad, Calif.). Real-time PCR is performed on the total RNA samples using primer/probe sets for three insulin responsive genes: insulin-like growth factor binding protein-1 (IGFBP-1), cytosolic PEPCK (PEPCK-C), and follistatin. Gene expression levels obtained by real-time PCR are normalized for total RNA content in the samples.
Oligomeric compounds of the present invention were tested for their effects on insulin signaling in HepG2 cells. HepG2 cells were plated at 7500 cells/well in collagen coated 96-well plates. The following day, cells were transfected with oligomeric compounds targeting miRNAs using 100 nM oligomeric compound in LIPOFECTIN™ (Invitrogen Corporation, Carlsbad, Calif.) in two 96-well plates. The oligomeric compounds were tested in triplicate on each 96-well plate, except for positive and negative controls, which were measured up to six times per plate. At the end of transfection, the transfection medium was replaced by regular growth medium. Twenty-eight hours post-transfection, the cells were subjected to overnight (sixteen to eighteen hours) serum starvation using serum free growth medium. Forty-four hours post-transfection, the cells in the transfected wells were treated with either no insulin (“basal” Experiment 1, for identification of insulin-mimetic compounds) or with 1 nM insulin (“insulin treated” Experiment 2, for identification of insulin sensitizers) for four hours. At the same time, in both plates, cells in some of the un-transfected control wells are treated with 100 nM insulin to determine maximal insulin response. At the end of the insulin or no-insulin treatment (forty-eight hours post-transfection), total RNA is isolated from both the basal and insulin treated (1 nM) 96-well plates, and the amount of total RNA from each sample is determined using a Ribogreen assay (Molecular Probes, Eugene, Oreg.). Real-time PCR is performed on all the total RNA samples using primer/probe sets for three insulin responsive genes: PEPCK-c, IGFBP-1 and follistatin. Expression levels for each gene are normalized to total RNA, and values+standard deviation are expressed relative to the transfectant only untreated control (UTC) and negative control compounds.
Protocols for treatment of HepG2 cells and transfection of oligomeric compounds are as described in Example 18. Also as described in Example 18, forty-four hours post-transfection, the cells in the transfected wells were treated with either no insulin (“basal” Experiment 3 (below), for identification of insulin-mimetic compounds) or with 1 nM insulin (“insulin treated” Experiment 4 (below), for identification of insulin sensitizers) for four hours. At the same time, in both plates, cells in some of the un-transfected control wells are treated with 100 nM insulin to determine maximal insulin response. At the end of the insulin or no-insulin treatment (forty-eight hours post-transfection), total RNA is isolated from both the basal and insulin treated (1 nM) 96-well plates, and the amount of total RNA from each sample is determined using a Ribogreen assay (Molecular Probes, Eugene, Oreg.).

[1] = test system: BJ, B16-F10, T47D, T47Dp53 and HeLa cells; assay: Cell cycle assay (propidium iodide flow cytometry), cell line panel; type: cell-based; settings: for G1 (percentage of cells in phase of the cell cycle) / G2/M (percentage of cells in phase of the cell cycle) / S (percentage of cells in phase of the cell cycle) / SubG1 (percentage of cells in phase of the cell cycle) / aneuploid (percentage of cells): 150 nM oligomeric compound, 4.5 μg/ml LIPOFECTIN, after 72 hours, propidium iodide flow cytometry
[2] = Experiment 1, basal (no insulin)
[3] = Experiment 2, 1 nM insulin treated
[4] = Experiment 2, insulin treated: HepG2 cells transfected with oligomeric compound, 1 nM insulin for four hours, UTC + 1 nM insulin = 100

327876 (antisense eA*eA*e[5mC]*eA*e[5mC]*eT*eG*eA*eT*eT*eT*e[5mC]*eA*eA*eA*eT*eG*eG*eT*eG*e[5mC]*eT*eA) [compound 327876]
PEPCK-c (% UTC) (PEPCK-c; [2]): 119 % UTC
PEPCK-c (% UTC) (PEPCK-c; [3]): 176 % UTC
Follistatin (% UTC) (follistatin; [2]): 104 % UTC
Follistatin (% UTC) (follistatin; [3]): 138 % UTC

327880 (antisense eA*e[5mC]*eA*eA*eA*eT*eT*e[5mC]*eG*eG*eT*eT*e[5mC]*eT*eA*e[5mC]*eA*eG*eG*eG*eT*eA) [compound 327880]
PEPCK-c (% UTC) (PEPCK-c; [2]): 110 % UTC
PEPCK-c (% UTC) (PEPCK-c; [3]): 125 % UTC
Follistatin (% UTC) (follistatin; [2]): 107 % UTC
Follistatin (% UTC) (follistatin; [3]): 149 % UTC

327885 (antisense eA*e[5mC]*eT*eA*e[5mC]*e[5mC]*eT*eG*e[5mC]*eA*e[5mC]*eT*eG*eT*eA*eA*eG*e[5mC]*eA*e[5mC]*eT*eT*eT*eG) [compound 327885]
PEPCKc mRNA (PEPCK-c; [2]): 73
Follistatin mRNA (follistatin; [2]): 74

327886 (antisense e[5mC]*eG*e[5mC]*eG*eT*eA*e[5mC]*e[5mC]*eA*eA*eA*eA*eG*eT*eA*eA*eT*eA*eA*eT*eG) [compound 327886]
PEPCKc mRNA (PEPCK-c; [2]): 61
Follistatin mRNA (follistatin; [2]): 82

327887 (antisense eG*e[5mC]*eG*eA*e[5mC]*e[5mC]*eA*eT*eG*eG*e[5mC]*eT*eG*eT*eA*eG*eA*e[5mC]*eT*eG*eT*eT*eA) [compound 327887]
PEPCKc mRNA (PEPCK-c; [2]): 83
Follistatin mRNA (follistatin; [2]): 113

327888 (antisense eA*eA*eT*eG*e[5mC]*e[5mC]*e[5mC]*e[5mC]*eT*eA*eA*eA*eA*eA*eT*e[5mC]*e[5mC]*eT*eT*eA*eT) [compound 327888]
G1 (percentage of cells in phase of the cell cycle) [1]: 53.7%
G2/M (percentage of cells in phase of the cell cycle) [1]: 16.7%
S (percentage of cells in phase of the cell cycle) [1]: 29.5%
SubG1 (percentage of cells in phase of the cell cycle) [1]: 13.3%
aneuploid (percentage of cells) [1]: 12.9%

327890 (antisense eA*eG*e[5mC]*eA*e[5mC]*eA*eA*eA*e[5mC]*eT*eA*e[5mC]*eT*eA*e[5mC]*e[5mC]*eT*e[5mC]*eA) [compound 327890]
PEPCK-c (% UTC) (PEPCK-c; [2]): 85 % UTC
PEPCK-c (% UTC) (PEPCK-c; [3]): 113 % UTC
Follistatin (% UTC) (follistatin; [2]): 78 % UTC
Follistatin (% UTC) (follistatin; [3]): 115 % UTC

327892 (antisense eA*e[5mC]*eT*eT*eT*e[5mC]*eG*eG*eT*eT*eA*eT*e[5mC]*eT*eA*eG*e[5mC]*eT*eT*eT*eA) [compound 327892]
PEPCK-c (% UTC) (PEPCK-c; [2]): 75 % UTC
PEPCK-c (% UTC) (PEPCK-c; [3]): 104 % UTC
Follistatin (% UTC) (follistatin; [2]): 91 % UTC
Follistatin (% UTC) (follistatin; [3]): 96 % UTC

327893 (antisense eA*eA*e[5mC]*e[5mC]*eA*e[5mC]*eA*e[5mC]*eA*eA*e[5mC]*e[5mC]*eT*eA*e[5mC]*eT*eA*e[5mC]*e[5mC]*eT*e[5mC]*eA) [compound 327893]
PEPCKc mRNA (PEPCK-c; [2]): 81
Follistatin mRNA (follistatin; [2]): 93

327895 (antisense eA*e[5mC]*eA*eA*eA*e[5mC]*eA*e[5mC]*e[5mC]*eA*eT*eT*eG*eT*e[5mC]*eA*e[5mC]*eA*e[5mC]*eT*e[5mC]*e[5mC]*eA) [compound 327895]
PEPCKc mRNA (PEPCK-c; [2]): 71
Follistatin mRNA (follistatin; [2]): 83

327897 (antisense eA*e[5mC]*eA*eG*eG*e[5mC]*e[5mC]*eG*eG*eG*eA*e[5mC]*eA*eA*eG*eT*eG*e[5mC]*eA*eA*eT*eA) [compound 327897]
PEPCKc mRNA expression (PEPCK-c; [4]): 78
PEPCKc mRNA (PEPCK-c; [2]): 72
Follistatin mRNA expression (follistatin; [4]): 123
Follistatin mRNA (follistatin; [2]): 129

327899 (antisense e[5mC]*eA*eG*eT*eG*eA*eA*eT*eT*e[5mC]*eT*eA*e[5mC]*e[5mC]*eA*eG*eT*eG*e[5mC]*e[5mC]*eA*eT*eA) [compound 327899]
PEPCKc mRNA (PEPCK-c; [2]): 42
Follistatin mRNA (follistatin; [2]): 66

327902 (antisense eG*eG*e[5mC]*eT*eG*eT*e[5mC]*eA*eA*eT*eT*e[5mC]*eA*eT*eA*eG*eG*eT*e[5mC]*eA*eG) [compound 327902]
G1 (percentage of cells in phase of the cell cycle) [1]: 50.7%
G2/M (percentage of cells in phase of the cell cycle) [1]: 15.3%
S (percentage of cells in phase of the cell cycle) [1]: 33.9%
SubG1 (percentage of cells in phase of the cell cycle) [1]: 10.6%
aneuploid (percentage of cells) [1]: 13.4%

327904 (antisense eA*e[5mC]*eT*e[5mC]*eA*e[5mC]*e[5mC]*eG*eA*e[5mC]*eA*eG*e[5mC]*eG*eT*eT*eG*eA*eA*eT*eG*eT*eT) [compound 327904]
G1 (percentage of cells in phase of the cell cycle) [1]: 54.4%
G2/M (percentage of cells in phase of the cell cycle) [1]: 16.2%
S (percentage of cells in phase of the cell cycle) [1]: 29.5%
SubG1 (percentage of cells in phase of the cell cycle) [1]: 8.6%
aneuploid (percentage of cells) [1]: 15.6%

327906 (antisense eT*e[5mC]*eA*eT*eA*eG*e[5mC]*e[5mC]*e[5mC]*eT*eG*eT*eA*e[5mC]*eA*eA*eT*eG*e[5mC]*eT*eG*e[5mC]*eT) [compound 327906]
G1 (percentage of cells in phase of the cell cycle) [1]: 46.1%
G2/M (percentage of cells in phase of the cell cycle) [1]: 20.9%
S (percentage of cells in phase of the cell cycle) [1]: 33%
SubG1 (percentage of cells in phase of the cell cycle) [1]: 15.2%
aneuploid (percentage of cells) [1]: 15.8%

327907 (antisense eA*eG*e[5mC]*e[5mC]*eT*eA*eT*e[5mC]*e[5mC]*eT*eG*eG*eA*eT*eT*eA*e[5mC]*eT*eT*eG*eA*eA) [compound 327907]
G1 (percentage of cells in phase of the cell cycle) [1]: 49.5%
G2/M (percentage of cells in phase of the cell cycle) [1]: 17.6%
S (percentage of cells in phase of the cell cycle) [1]: 32.8%
SubG1 (percentage of cells in phase of the cell cycle) [1]: 17.8%
aneuploid (percentage of cells) [1]: 17.8%

327910 (antisense eT*eG*eA*eT*eA*eG*e[5mC]*e[5mC]*e[5mC]*eT*eG*eT*eA*e[5mC]*eA*eA*eT*eG*e[5mC]*eT*eG*e[5mC]*eT) [compound 327910]
G1 (percentage of cells in phase of the cell cycle) [1]: 49.5%
G2/M (percentage of cells in phase of the cell cycle) [1]: 17.5%
S (percentage of cells in phase of the cell cycle) [1]: 33%
SubG1 (percentage of cells in phase of the cell cycle) [1]: 9.3%
aneuploid (percentage of cells) [1]: 13.1%

327928 (antisense eA*eA*e[5mC]*e[5mC]*eG*eA*eT*eT*eT*e[5mC]*eA*eG*eA*eT*eG*eG*eT*eG*e[5mC]*eT*eA*eG) [compound 327928]
G1 (percentage of cells in phase of the cell cycle) [1]: 56%
G2/M (percentage of cells in phase of the cell cycle) [1]: 16%
S (percentage of cells in phase of the cell cycle) [1]: 27.9%
SubG1 (percentage of cells in phase of the cell cycle) [1]: 6.6%
aneuploid (percentage of cells) [1]: 15.9%

327951 (antisense e[5mC]*eA*e[5mC]*eA*eA*eA*e[5mC]*e[5mC]*eA*eT*eT*eA*eT*eG*eT*eG*e[5mC]*eT*eG*e[5mC]*eT*eA) [compound 327951]
G1 (percentage of cells in phase of the cell cycle) [1]: 60.9%
G2/M (percentage of cells in phase of the cell cycle) [1]: 14.3%
S (percentage of cells in phase of the cell cycle) [1]: 24.8%
SubG1 (percentage of cells in phase of the cell cycle) [1]: 4.3%
aneuploid (percentage of cells) [1]: 16.7%

328362 (eT*eG*eT*eG*eT*dT*dT*dT*d[5mC]*dT*dG*dA*d[5mC]*dT*d[5mC]*eA*eG*eT*e[5mC]*eA) [compound 328362]
G1 (percentage of cells in phase of the cell cycle) [1]: 51.2%
G2/M (percentage of cells in phase of the cell cycle) [1]: 15.1%
S (percentage of cells in phase of the cell cycle) [1]: 33.6%
SubG1 (percentage of cells in phase of the cell cycle) [1]: 9.1%
aneuploid (percentage of cells) [1]: 12.9%

328382 (e[5mC]*eA*eG*eA*e[5mC]*dT*d[5mC]*d[5mC]*d[5mC]*dA*dA*d[5mC]*dT*dG*dA*e[5mC]*e[5mC]*eA*eG*eA) [compound 328382]
G1 (percentage of cells in phase of the cell cycle) [1]: 59.8%
G2/M (percentage of cells in phase of the cell cycle) [1]: 14.4%
S (percentage of cells in phase of the cell cycle) [1]: 25.7%
SubG1 (percentage of cells in phase of the cell cycle) [1]: 2.9%
aneuploid (percentage of cells) [1]: 14.8%

TGAGCTACAGTGCTTCATCTCA [ISIS 327901] (chemistry not given here) [uniform 2′-MOE PS; targets mir-143]
percentage of cells in the G2/M phase ([1]; 150 nM, 72 hours (Table 29)): increased percentage of cells in the G2/M phase
